Test results published in US5955440A, “Macrolide LHRH antagonists” (Abbott Laboratories, priority 1998, dated 1999).

Key:
[1] = target: T1, LHRH rat pituitary receptor (Rattus norvegicus, UniProt P30969); experiment: LHRH rat pituitary receptor binding (pKI); details: negative logarithm of the equilibrium dissociation constants; for Ki: Table 1, read-out: receptor binding affinity (pKI) (converted); for receptor binding affinity (pKI): Table 1
T1 construct: from tissue; host or cells: rat pituitary
T1 sequence (P30969 1-327): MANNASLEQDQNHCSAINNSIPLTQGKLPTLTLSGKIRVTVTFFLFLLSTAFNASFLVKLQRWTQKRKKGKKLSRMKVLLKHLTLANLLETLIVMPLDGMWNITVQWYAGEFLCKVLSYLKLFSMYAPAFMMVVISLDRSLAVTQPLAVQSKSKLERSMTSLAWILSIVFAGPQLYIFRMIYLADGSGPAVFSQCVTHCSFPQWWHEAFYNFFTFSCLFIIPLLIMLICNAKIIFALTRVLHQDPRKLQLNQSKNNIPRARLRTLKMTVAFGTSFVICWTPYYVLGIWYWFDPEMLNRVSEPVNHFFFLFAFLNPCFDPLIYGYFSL
Method: (§1) Representative compounds of the present invention were evaluated in in vitro tests for LHRH rat pituitary receptor binding (pKI) and for LH inhibition from rat pituitary cells for antagonist potency (pA2). The tests employed the methods detailed in F. Haviv, et al. J. Med. Chem., 32: 2340-2344 (1989). The receptor binding affinity (pKI) is the negative logarithm of the equilibrium dissociation constants.

[2] = target: T2, rat pituitary cells (Rattus norvegicus, UniProt P30969); experiment: LH inhibition from rat pituitary cells, antagonist potency (pA2); assay type: cell-based; details: negative log of antagonist concentration shifting the leuprolide response curve to two-fold higher concentration, Table 2
T2 construct: endogenous in cells; host or cells: rat pituitary cells
T2 sequence (P30969 1-327): T1 sequence (P30969 1-327)
Method: as §1
The pA2 value is the negative logarithm of the concentration of antagonist which shifts the response curve produced by the agonist leuprolide to two-fold higher concentration. Leuprolide is the LHRH agonist having the structure pyro-Glu^1 -His^2 -Trp^3 -Ser^4 -Tyr^5 -D-Leu^6 -Leu^7 -Arg^8 -Pro^9 -NHEt and is disclosed and claimed in U.S. Pat. No. 4,005,063. Typically pA2 values of 7.0 or greater are indicative of good LHRH antagonist potency.

Compound	Ki [1]	Kb [2]	receptor binding affinity (pKI) [1]	pA2 [2]
CC[C@H]1OC(=O)[C@H](C)[C@@H](O[C@H]2C[C@@](C)(OC)[C@@H](O)[C@H](C)O2)[C@H](C)[C@@H](O[C@@H]2O[C@H](C)C[C@H](N(C)C(C)C)[C@H]2O)[C@](C)(OC)C[C@@H](C)C(=O)[C@H](C)[C@H]2N(CCc3ccc(F)c(Cl)c3)C(=O)O[C@]12C [Example 28, 3'-N-Desmethyl-3'-N-isopropyl-11-deoxy-11-[carboxy-(3-chloro-4-fluorophenethylamino)]-6-O-methyl-erythromycin A 11,12-(cyclic carbamate)]	0.324 nM	3.02 nM		
CC[C@H]1OC(=O)[C@H](C)[C@@H](O[C@H]2C[C@@](C)(OC)[C@@H](O)[C@H](C)O2)[C@H](C)[C@@H](O[C@@H]2O[C@H](C)C[C@H](N(C)C3CCCC3)[C@H]2O)[C@](C)(OC)C[C@@H](C)C(=O)[C@H](C)[C@H]2N(CCc3ccc(F)c(Cl)c3)C(=O)O[C@]12C [Example 26, 3'-N-Desmethyl-3'-N-cyclopentyl-11-deoxy-11-[carboxy-(3-chloro-4-fluorophenethylamino)]-6-O-methyl-erythromycin A 11,12-(cyclic carbamate)]	1.48 nM	2.19 nM		
CCCN(C)[C@H]1C[C@@H](C)O[C@@H](O[C@@H]2[C@@H](C)[C@H](O[C@H]3C[C@@](C)(OC)[C@@H](O)[C@H](C)O3)[C@@H](C)C(=O)O[C@H](CC)[C@@]3(C)OC(=O)N(CCc4ccc(Cl)c(Cl)c4)[C@@H]3[C@@H](C)C(=O)[C@H](C)C[C@@]2(C)OC)[C@@H]1O [Example 3, 3'-N-Desmethyl-3'-N-n-propyl-11-deoxy-11-[carboxy-(3,4-dichlorophenethylamino)]-6-O-methyl-erythromycin A 11,12-(cyclic carbamate)]			9.13	8.60
CC[C@H]1OC(=O)[C@H](C)[C@@H](O[C@H]2C[C@@](C)(OC)[C@@H](O)[C@H](C)O2)[C@H](C)[C@@H](O[C@@H]2O[C@H](C)C[C@H](N(C)C3CCC3)[C@H]2O)[C@](C)(OC)C[C@@H](C)C(=O)[C@H](C)[C@H]2N(CCc3ccc(Cl)cc3)C(=O)O[C@]12C [Example 20]			8.49	7.53
CCCN(C)[C@H]1C[C@@H](C)O[C@@H](O[C@@H]2[C@@H](C)[C@H](O[C@H]3C[C@@](C)(OC)[C@@H](O)[C@H](C)O3)[C@@H](C)C(=O)O[C@H](CC)[C@@]3(C)OC(=O)N(CCc4cccc(Cl)c4)[C@@H]3[C@@H](C)C(=O)[C@H](C)C[C@@]2(C)OC)[C@@H]1O [Example 25, 3'-N-Desmethyl-3'-N-n-propyl-11-deoxy-11-[carboxy-(3-chlorophenethylamino)]-6-O-methyl-erythromycin A 11,12-(cyclic carbamate)]	4.17 nM	37.2 nM		
CC[C@H]1OC(=O)[C@H](C)[C@@H](O[C@H]2C[C@@](C)(OC)[C@@H](O)[C@H](C)O2)[C@H](C)[C@@H](O[C@@H]2O[C@H](C)C[C@H](N(C)C3CCC3)[C@H]2O)[C@](C)(OC)C[C@@H](C)C(=O)[C@H](C)[C@H]2N(CCc3ccc(F)c(Cl)c3)C(=O)O[C@]12C [Example 27, 3'-N-Desmethyl-3'-N-cyclobutyl-11-deoxy-11-[carboxy-(3-chloro-4-fluorophenethylamino)]-6-O-methyl-erythromycin A 11,12-(cyclic carbamate)]	1.55 nM	3.8 nM		
CC[C@H]1OC(=O)[C@H](C)[C@@H](O[C@H]2C[C@@](C)(OC)[C@@H](O)[C@H](C)O2)[C@H](C)[C@@H](O[C@@H]2O[C@H](C)C[C@H](N(C)CC3CC3)[C@H]2O)[C@](C)(OC)C[C@@H](C)C(=O)[C@H](C)[C@H]2N(CCc3ccc(F)c(Cl)c3)C(=O)O[C@]12C [Example 29, 3'-N-Desmethyl-3'-N-cyclopropylmethyl-11-deoxy-11-(3-chloro-4-fluorophenethylamino)-6-O-methyl-erythromycin A 11,12-(cyclic carbamate)]	0.537 nM	1.07 nM		

More lines, now with the values ahead:

Ki [1]	Kb [2]	receptor binding affinity (pKI) [1]	pA2 [2]	Compound
0.513 nM	5.25 nM			CC[C@H]1OC(=O)[C@H](C)[C@@H](O[C@H]2C[C@@](C)(OC)[C@@H](O)[C@H](C)O2)[C@H](C)[C@@H](O[C@@H]2O[C@H](C)C[C@H](N(C)C3CCC3)[C@H]2O)[C@](C)(OC)C[C@@H](C)C(=O)[C@H](C)[C@H]2N(CCc3ccc(F)c(F)c3)C(=O)O[C@]12C [Example 30, 3'-N-Desmethyl-3'-N-cyclobutyl-11-deoxy-11-[carboxy-(3,4-difluorophenethylamino)]-6-O-methyl-erythromycin A 11,12-(cyclic carbamate)]
0.269 nM	5.75 nM			CC[C@H]1OC(=O)[C@H](C)[C@@H](O[C@H]2C[C@@](C)(OC)[C@@H](O)[C@H](C)O2)[C@H](C)[C@@H](O[C@@H]2O[C@H](C)C[C@H](N(C)C3CCCC3)[C@H]2O)[C@](C)(OC)C[C@@H](C)C(=O)[C@H](C)[C@H]2N(CCc3ccc(F)c(F)c3)C(=O)O[C@]12C [Example 31, 3'-N-Desmethyl-3'-N-cyclopentyl-11-deoxy-11-[carboxy-(3,4-difluorophenethylamino)]-6-O-methyl-erythromycin A 11,12-(cyclic carbamate)]
0.0832 nM	26.3 nM			CCCN(C)[C@H]1C[C@@H](C)O[C@@H](O[C@@H]2[C@@H](C)[C@H](O[C@H]3C[C@@](C)(OC)[C@@H](O)[C@H](C)O3)[C@@H](C)C(=O)O[C@H](CC)[C@@]3(C)OC(=O)N(CCc4ccc(F)c(F)c4)[C@@H]3[C@@H](C)C(=O)[C@H](C)C[C@@]2(C)OC)[C@@H]1O [Example 32, 3'-N-Desmethyl-3'-N-n-propyl-11-deoxy-11-[carboxy-(3,4-difluorophenethylamino)]-6-O-methyl-erythromycin A 11,12-(cyclic carbamate)]
0.676 nM	3.98 nM			CC[C@H]1OC(=O)[C@H](C)[C@@H](O[C@H]2C[C@@](C)(OC)[C@@H](O)[C@H](C)O2)[C@H](C)[C@@H](O[C@@H]2O[C@H](C)C[C@H](N(C)CC3CC3)[C@H]2O)[C@](C)(OC)C[C@@H](C)C(=O)[C@H](C)[C@H]2N(CCc3ccc(F)c(F)c3)C(=O)O[C@]12C [Example 33, 3'-N-Desmethyl-3'-N-cyclopropylmethyl-11-deoxy-11-[carboxy-(3,4-difluorophenethylamino)]-6-O-methyl-erythromycin A 11,12-(cyclic carbamate)]
